Measured values from the supplement of paper PMC11208160.

Test: recombinant barcode read abundance after kanamycin selection (control-corrected) (log10(CPM+1)); higher = more efficient recombination; sequences stand for … in AGTGCAGAGAAAATCGGCCAGTTTTCTCTGCCTGCAGTCCGCATGCCGT…AGATTTATGCAGCGGACTGCCTTTCTCCCAAAGTGATAAACCGGACAGTATCATGGACCGGTTTTCCCGGTAATCCGTATTTGCAAGGTTGGTTTCACT; site = the 11-nt target
How it was run: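 This pooled E. coli screen matched targets with IS621 bridge RNA target-binding loops. Plating was done in duplicate on chloramphenicol/ampicillin LB agar as a control and on chloramphenicol/ampicillin/kanamycin plus 0.1 mM IPTG. Recombination efficiency reflects barcode counts at recombinant junctions as counts per million, averaged and control-corrected. The figures are log10(CPM+1).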
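Also: IS621 recombinase and bridge RNA in Escherichia coli cells.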

Row | Sequence | recombinant barcode read abundance (log10)
1 | GAATCTACTTGGGTTCTAACCTGTTGCTT (site GACTCTACTAA) | 0.0804
2 | GAATCTACTTGGGTTCTAACCTGTTGCTT (site GAGTCTACTAA) | 0.122
3 | GAATCTACTTGGGTTCTAACCTGTTGCTT (site GATTCTACTAA) | 0.00713
4 | GAATGGACTTGGGTTCTAACCTGTTGCGA (site CTCATATCTAA) | 0.0913
5 | GAATGGACTTGGGTTCTAACCTGTTGCGA (site GAATGGACTTC) | 2.45
6 | GACAAACCTTGGGTTCTAACCTGTTGCCT (site GACAAACCTAG) | 0.433
7 | GACAAACCTTGGGTTCTAACCTGTTGCCT (site GTCAAACCTAA) | 0.00743
8 | GACACAGCTTGGGTTCTAACCTGTTGCCT (site GAAACAGCTAG) | 0.145
9 | GACACAGCTTGGGTTCTAACCTGTTGCCT (site GACACAGCTAG) | 1.26
10 | GACACAGCTTGGGTTCTAACCTGTTGCCT (site GAGACAGCTAG) | 0.118
11 | GACACAGCTTGGGTTCTAACCTGTTGCCT (site GATACAGCTAG) | 0.372
12 | GACACTTCTTGGGTTCTAACCTGTTGCCT (site GACACTTCTAG) | 0.133
13 | GACACTTCTTGGGTTCTAACCTGTTGCCT (site GTCAATTCTAG) | 0.0949
14 | GACATATCTTGGGTTCTAACCTGTTGCTG (site GACATATCTCA) | 0.403
15 | GACATATCTTGGGTTCTAACCTGTTGCTG (site GACATATCTTG) | 0.165
16 | GACCAGCCTTGGGTTCTAACCTGTTGCCT (site GACCAGCCTAA) | 0.277
17 | GACCAGCCTTGGGTTCTAACCTGTTGCCT (site GACCAGCCTAC) | 0.0691
18 | GACCAGCCTTGGGTTCTAACCTGTTGCCT (site GACCAGCCTAG) | 0.98
19 | GACCAGCCTTGGGTTCTAACCTGTTGCCT (site GACCAGCCTAT) | 0.359
20 | GACCAGTCTTGGGTTCTAACCTGTTGCGG (site GACCAGTCTCC) | 1.97
21 | GACCAGTCTTGGGTTCTAACCTGTTGCGG (site GTCCAGGCTCC) | 0.128
22 | GACCGCTCTTGGGTTCTAACCTGTTGCTA (site GACCGCTCTTA) | 1.2

Row | Sequence | recombinant barcode read abundance (log10)
23 | GACCGCTCTTGGGTTCTAACCTGTTGCTA (site GTCAGCTCTTA) | 0.37
24 | GACCGTCCTTGGGTTCTAACCTGTTGCCA (site GACCGTCCTTG) | 0.761
25 | GACCGTCCTTGGGTTCTAACCTGTTGCCA (site GACTGTCCTTC) | 0.472
26 | GACCGTCCTTGGGTTCTAACCTGTTGCTT (site GACCGTCCTAA) | 1.1
27 | GACCGTCCTTGGGTTCTAACCTGTTGCTT (site GACCGTCCTAC) | 0.447
28 | GACCGTCCTTGGGTTCTAACCTGTTGCTT (site GACCGTCCTAG) | 0.252
29 | GACCGTCCTTGGGTTCTAACCTGTTGCTT (site GACCGTCCTAT) | 1.19
30 | GACCGTGCTTGGGTTCTAACCTGTTGCCT (site GACCGAGCTAG) | 0.0758
31 | GACCGTGCTTGGGTTCTAACCTGTTGCCT (site GACCGCGCTAG) | 0.103
32 | GACCGTGCTTGGGTTCTAACCTGTTGCCT (site GACCGGGCTAG) | 0.268
33 | GACCGTGCTTGGGTTCTAACCTGTTGCCT (site GACCGTGCTAG) | 1.38
34 | GACCTACCTTGGGTTCTAACCTGTTGCAG (site GACCTACCTCT) | 2.18
35 | GACCTACCTTGGGTTCTAACCTGTTGCAG (site GACCTCCCTCA) | 0.136
36 | GACCTATCTTGGGTTCTAACCTGTTGCCT (site GACCTATCTAG) | 1.39
37 | GACCTATCTTGGGTTCTAACCTGTTGCCT (site TGTGCTACTGT) | 0.213
38 | GACCTCCCTTGGGTTCTAACCTGTTGCTG (site GACCTACCTCT) | 0.219
39 | GACCTCCCTTGGGTTCTAACCTGTTGCTG (site GACCTCCCTCA) | 2.16
40 | GACGCTTCTTGGGTTCTAACCTGTTGCAT (site GACGCAACTAT) | 1
41 | GACGCTTCTTGGGTTCTAACCTGTTGCAT (site GACGCTTCTAT) | 0.254
42 | GACGTAACTTGGGTTCTAACCTGTTGCAG (site AGGAAGGCTTG) | 0.459
43 | GACGTAACTTGGGTTCTAACCTGTTGCAG (site GACGTAACTCT) | 1.15
44 | GACGTAACTTGGGTTCTAACCTGTTGCCT (site GAAGTAACTAG) | 0.0422

Row | Sequence | recombinant barcode read abundance (log10)
45 | GACGTAACTTGGGTTCTAACCTGTTGCCT (site GACGTAACTAG) | 0.508
46 | GACGTAACTTGGGTTCTAACCTGTTGCCT (site GAGGTAACTAG) | 0.0292
47 | GACGTAACTTGGGTTCTAACCTGTTGCCT (site GATGTAACTAG) | 0.163
48 | GACTAGTCTTGGGTTCTAACCTGTTGCAG (site CGGGGCCCTAA) | 0.156
49 | GACTAGTCTTGGGTTCTAACCTGTTGCAG (site GACTAGTCTCT) | 2.22
50 | GACTATCCTTGGGTTCTAACCTGTTGCCG (site ACTATGACTAA) | 0.0127
51 | GACTATCCTTGGGTTCTAACCTGTTGCCG (site GACTATCCTCG) | 0.739
52 | GACTATGCTTGGGTTCTAACCTGTTGCCT (site GACTATGCTAG) | 0.461
53 | GACTATGCTTGGGTTCTAACCTGTTGCCT (site GCCTATGCTAG) | 0.291
54 | GACTATGCTTGGGTTCTAACCTGTTGCCT (site GGCTATGCTAG) | 0.0633
55 | GACTATGCTTGGGTTCTAACCTGTTGCCT (site GTCTATGCTAG) | 0.00989
56 | GACTATTCTTGGGTTCTAACCTGTTGCCT (site GAATATTCTAG) | 0.0378
57 | GACTATTCTTGGGTTCTAACCTGTTGCCT (site GACTATTCTAG) | 0.212
58 | GACTATTCTTGGGTTCTAACCTGTTGCCT (site GAGTATTCTAG) | 0.106
59 | GACTATTCTTGGGTTCTAACCTGTTGCCT (site GATTATTCTAG) | 0.178
60 | GACTCTACTTGGGTTCTAACCTGTTGCTT (site GAATCTACTAA) | 0.0131
61 | GACTCTACTTGGGTTCTAACCTGTTGCTT (site GACTCTACTAA) | 0.65
62 | GACTCTACTTGGGTTCTAACCTGTTGCTT (site GAGTCTACTAA) | 0.068
63 | GACTCTACTTGGGTTCTAACCTGTTGCTT (site GATTCTACTAA) | 0.0521
64 | GACTCTCCTTGGGTTCTAACCTGTTGCAT (site GACTCTCCTAA) | 0.00987
65 | GACTCTCCTTGGGTTCTAACCTGTTGCAT (site GACTCTCCTAC) | 1.45
66 | GACTCTCCTTGGGTTCTAACCTGTTGCAT (site GACTCTCCTAG) | 0.186

Row | Sequence | recombinant barcode read abundance (log10)
67 | GACTCTCCTTGGGTTCTAACCTGTTGCAT (site GACTCTCCTAT) | 0.387
68 | GACTCTCCTTGGGTTCTAACCTGTTGCGT (site GACTCTCCTAA) | 0.103
69 | GACTCTCCTTGGGTTCTAACCTGTTGCGT (site GACTCTCCTAC) | 1.75
70 | GACTCTCCTTGGGTTCTAACCTGTTGCGT (site GACTCTCCTAG) | 0
71 | GACTCTCCTTGGGTTCTAACCTGTTGCGT (site GACTCTCCTAT) | 0.321
72 | GACTGCCCTTGGGTTCTAACCTGTTGCCT (site GACTGCCCTAG) | 0.166
73 | GACTGCCCTTGGGTTCTAACCTGTTGCCT (site GCCTGCCCTAG) | 0.164
74 | GACTGCCCTTGGGTTCTAACCTGTTGCCT (site GGCTGCCCTAG) | 0.0269
75 | GACTGCCCTTGGGTTCTAACCTGTTGCCT (site GTCTGCCCTAG) | 0.129
76 | GACTGGCCTTGGGTTCTAACCTGTTGCTT (site GACTGGCCTAA) | 0.389
77 | GACTGGCCTTGGGTTCTAACCTGTTGCTT (site GACTGGGCTCA) | 0.154
78 | GACTTGACTTGGGTTCTAACCTGTTGCCT (site GACTTGACTAG) | 1.13
79 | GACTTGACTTGGGTTCTAACCTGTTGCCT (site GACTTGCCTAG) | 0.0736
80 | GACTTGACTTGGGTTCTAACCTGTTGCCT (site GACTTGGCTAG) | 0.171
81 | GACTTGACTTGGGTTCTAACCTGTTGCCT (site GACTTGTCTAG) | 0.0657
82 | GACTTGTCTTGGGTTCTAACCTGTTGCCT (site GACTTGACTAG) | 0.0686
83 | GACTTGTCTTGGGTTCTAACCTGTTGCCT (site GACTTGCCTAG) | 0.0458
84 | GACTTGTCTTGGGTTCTAACCTGTTGCCT (site GACTTGGCTAG) | 0.0443
85 | GACTTGTCTTGGGTTCTAACCTGTTGCCT (site GACTTGTCTAG) | 1.41
86 | GACTTTCCTTGGGTTCTAACCTGTTGCAT (site GACTTACCTAT) | 0.01
